18 molecules from the SangsterLogP compilation can be followed below.

For orientation: logP means the decadic logarithm of the partition coefficient of the neutral form, usually between octanol and water. High values mean higher lipophilicity, low ones lower lipophilicity. Usually logD stands for the decadic logarithm of the distribution of all forms, ionised or not, between an organic phase and buffer at a given pH.

The first series can be described thus: method code SF, from DOI: 10.1021/js960111p, PMID: 9002468.
Conditions: not given
Molecule `c1ccc2c3c([nH]c2c1)CCCC3` had a log partition coefficient (logP) of 3.

For the molecule `COc1ccc2[nH]ccc2c1`, the logP amounted to 2.08. `Clc1ccc2[nH]ccc2c1`: the logP turned out to be 2.93. On the same count and under the same terms, as for `Oc1ccc2[nH]ccc2c1`, the figure is 1.29. The molecule `Cn1ccc2ccccc21` came in with a logP of 2.55.

`Cc1ccc2[nH]c(C)cc2c1` gave a logP of 3.02. As for `Cc1ccc2[nH]ccc2c1`, the logP came out at 2.67.

Still in this series, the particulars now being: pH 12.0.
Consider `Cc1nccc2c1[nH]c1ccccc12`, for which the logD was found to be 2.89. As for `CC1NCCc2c1[nH]c1ccccc21` (stereo not drawn), the logD turned out to be 2.06.

In turn, `Cc1nccc2c3ccccc3n(C)c12` showed a logD of 3.01. In turn, `CC1NCCc2c1[nH]c1ccc([N+](=O)[O-])cc21` (stereo not drawn) had a logD of 2.07.

Consider `c1ccc2c(c1)[nH]c1cnccc12`, for which the logD worked out at 2.65. The same measure, in the same setting: then `COc1ccc2c3c([nH]c2c1)C(C)NCC3` (stereo not drawn), with 1.37; and `Cn1c2ccccc2c2ccccc21`, with 3.99.

In turn, `CC1NCCc2c1[nH]c1ccc(Cl)cc21` (stereo not drawn) displayed a pH-dependent lipophilicity (logD) of 2.3. Regarding `c1ccc2c3c([nH]c2c1)CNCC3`, the logD came to 1.98. For `COc1ccc2[nH]c3c(c2c1)CCNC3C` (stereo not drawn), the logD amounted to 1.15. Same read-out and setting: as for `NCCc1c[nH]c2ccccc12`, the figure is 1.35.
